“Also recorded” adds a separate entry of the source. Read-outs that look alike come from different tables or passages of the source. One block for each molecule: values may come before it.
Columns and labels:
[1] = biological target: glycogen synthatase kinase 3 beta (GSKB) (Homo sapiens, UniProt P49841); experiment: GSK B kinase activity of compounds (FIG. 10); format: biochemical; settings: 10 uM
ROCK II = biological target: T1, ROCK II (Rattus norvegicus, UniProt Q62868); experiment: ROCK II kinase assay with [γ-32P] ATP and myelin basic protein substrate (FIG. 3); format: biochemical; settings: 100 μM ATP, 30 min at 30° C.
T1 construct: purchased Upstate (Lake Placid, N.Y.)
From the text: The ability of compounds to inhibit ROK activity may be tested in a cell-free assay system using recombinant ROK, radiaoactive ATP, and Myelin basic Protein (MBP). MBP is a highly phosphorylated protein, is inexpensive to buy in purified form, is phosphorylated by ROK, and is used as the assay substrate for phosphorylation. Recombinant ROK has been prepared from a number of sources. Overexpression in mammalian cells provides a convenient, easily renewed source of ROK activity. Measurement of Rho-associated kinase (ROK) activity is important to determine the potency of novel inhibitors. MBP is a substrate for ROK and a number of other protein kinases, making it useful both to quantitate ROK activity and to indicate the potency and specificity of novel inhibitors for ROK. […]
ROCK II was assayed in 20 mM MOPS, pH 7.2, 25 mM β-glycerophosphate, 5 mM EGTA, 1 mM sodium orthovanadate, 1 mM dithiothreitol with dephosphorylated myelin basic protein (MBP, 0.2 mg/ml) as substrate with or without BA-1016 or BA-1017. […] Assays were initiated by adding Mg^2+/ATP and terminated by spotting 40 μl of each reaction onto phosphocellulose paper (P81 paper, Whatman), followed by washes in 0.75% phosphoric acid to remove ATP and then dried, put in scintillation cocktail and counted to measure ^32P incorporation. Radioactivity is measured using a scintillation counter. […]

[2] = test system: PC12 cells on MAG substrates; experiment: Bioassay of PC12 neurite growth on growth inhibitory myelin-associated glycoprotein (MAG) substrates; format: cell-based; settings: Dihydrochloride; for neurite outgrowth on inhibitory MAG substrates (FIG. 4): PC12 cells, 0.31, 3.1 or 31 uM
Method: PC-12 cells (ATCC CRL-1721) typically extend neurites in response to NGF, but when plated on inhibitory substrates, this outgrowth is inhibited and the cells remain round. We tested the ability of the new compound to grow neurites when plated on inhibitory substrates.
We used PC12 cells obtained from the American Type Culture Collection. PC12 cells were grown in Dulbecco's modified eagle's medium (DMEM) with 10% horse serum and 5% fetal bovine serum. To test compounds for the ability to overcome growth inhibition, PC12 cells were collected by detaching with trypsin-EDTA (0.05%), then resuspended in DMEM, 1% FBS, and 50 ng/ml nerve growth factor before plating on MAG substrates. MAG used for substrates was purified from myelin after extraction in 1% octylglucoside and separation by ion exchange chromatography (McKerracher et al. 1994, Neuron 13:805-811). Test substrates were prepared as uniform substrates in 96-well plates by drying overnight in the laminar flow hood (Nalge Nunc, Naperville, Ill.). Plates were precoated with polylysine (100 μg/ml) for 3 hours at 37° C., then washed and dried approx. 1 hour. MAG was prepared as a substrate by drying down 8 μg of protein overnight. After plating on the MAG substrate, the cells were grown at 37 C. for two days in the presence or absence of test compound (BA1003, BA1016, BA1017) to allow neurite growth. Polylysine substrates were used as a positive control. Quantitative analysis of neurite outgrowth was with the aid of Northern Eclipse software (Empix Imaging, Mississauga, Ontario). Data analysis and statistics were with Microsoft Excel.
Referring to FIG. 4 there is shown a graph illustrative of experiments performed in triplicate testing the ability of BA-1003, BA-1016 and BA-1017 to overcome growth inhibition by MAG. PC12 cells were plated on MAG substrates alone (MAG) or MAG substrates in the presence of 0.31 uM, 3.1 um or 31 um concentrations of the test compound. The numbers of neurons that grew neurites were scored, and are shown as the percentage of neurite growth.

[3] = test system: NG108-15 neuronal cell line; experiment: Rapid bioassay of neurite growth in NG108-15 cells; format: cell-based; settings: NG108 cells, 3.1 to 31 μM
Method: When neurons are placed on inhibitory substrates in tissue culture, the neurons remain rounded. When an effective Rho kinase inhibitor is added to the neurons, the neurons are able to grow neurites on myelin substrates. The time that it takes for neurons to grow neurites after the addition of a Rho kinase inhibitor is about the same as the time that it takes for neurons to grow neurites if the neurons had been plated on growth permissive substrate such as laminin or polylysine, which time is typically 1 to 2 days in cell culture. An assessment of resulting neurite growth can be scored by visual means. If needed, a quantitative assessment of neurite growth can be performed. This involves measuring after a time such as 1 to 2 days the neurite length a) in control cultures where neurons are plated on myelin substrates and left untreated with Rho kinase inhibitor for such time, b) in positive control cultures, wherein for example neurons are plated on polylysine but left untreated with Rho kinase inhibitor for such time, and c) in cultures analogous to a) and b) that are treated with different concentrations of a Rho kinase inhibitor for such time. […] In this assay, NG108 cells are plated on plastic in the presence or absence of the test substance (a Rho kinase inhibitor). […] The relative efficacy can be assessed by fixing the cultures 5 hours after plating, and counting the number of cells that have grown neurites.
A rapid bioassay is used to determine the effect of a test compounds on the stimulation of neurite growth in vitro. A neuronal cell line, NG108-15 (ATCC HB-12317), is maintained in culture in Dulbecco's minimal essential medium (DMEM) supplemented with 10% fetal bovine serum, Penicillin/Streptomycin and HAT supplement (Gibco/BRL). For the bioassay, the cells are collected by trypsinisation and ressuspended in DMEM supplemented with 5% FBS, Penicillin/Streptomycin, HAT supplement and 0.25 mg/ml cAMP, adjusted to 1.0×10^4 cells/ml. The cells are plated into wells of a 96 well plate at 100 μls (1000 cells)/well. Cells are incubated 4 h at 37° C. and 5% CO2 in presence of small molecules or cethrin at a concentration of 1000 cells per well of a 96-wells plate in a final volume of 100 ul.
After incubation, cells are fixed by adding […] 16% PFA and 5.4 μls 2.5% glutaraldehyde to the media in each well. The wells are stained with cresyl violet 0.05% , 100 μls/well for 15 min. Cells with neurites (length≧one cell body) are counted using an inverted light microscope. The % neurite outgrowth is determined by calculating the number of cells with neurites over the total number of counted cells.

PRK2 = PRK2 (Homo sapiens, UniProt Q16513); settings: cited from earlier work
MSK1 = MSK1 (Homo sapiens, UniProt O75582); settings: cited from earlier work
PHK = settings: cited from earlier work
[4] = rat, in vivo, po, 30 mg/kg; cited from earlier work
[5] = cited from earlier work
MAPKAP-K1b = MAPKAP-K1b (Oryctolagus cuniculus, UniProt A0A5F9C4L9); settings: cited from earlier work
MAPKAP-K1b, sequence (A0A5F9C4L9 1-740): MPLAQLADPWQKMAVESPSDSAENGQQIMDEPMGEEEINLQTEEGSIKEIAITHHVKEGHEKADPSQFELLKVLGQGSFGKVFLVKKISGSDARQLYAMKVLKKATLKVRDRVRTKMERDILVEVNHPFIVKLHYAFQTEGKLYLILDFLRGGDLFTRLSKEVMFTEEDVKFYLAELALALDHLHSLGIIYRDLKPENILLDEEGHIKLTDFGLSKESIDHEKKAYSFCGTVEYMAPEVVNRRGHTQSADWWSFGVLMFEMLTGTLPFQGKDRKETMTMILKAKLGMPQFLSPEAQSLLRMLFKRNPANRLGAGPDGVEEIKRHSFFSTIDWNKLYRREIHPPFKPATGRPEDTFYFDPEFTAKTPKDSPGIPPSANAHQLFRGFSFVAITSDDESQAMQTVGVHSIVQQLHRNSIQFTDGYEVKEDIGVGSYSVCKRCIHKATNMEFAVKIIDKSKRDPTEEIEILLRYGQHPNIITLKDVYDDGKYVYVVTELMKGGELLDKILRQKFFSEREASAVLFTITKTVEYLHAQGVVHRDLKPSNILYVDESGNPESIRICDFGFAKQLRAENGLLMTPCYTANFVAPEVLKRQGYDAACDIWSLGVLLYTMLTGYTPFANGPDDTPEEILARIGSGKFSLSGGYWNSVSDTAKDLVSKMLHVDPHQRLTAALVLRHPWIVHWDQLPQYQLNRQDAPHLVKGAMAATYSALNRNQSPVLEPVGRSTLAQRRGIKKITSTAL

glycogen synthatase kinase 3 beta (GSKB), sequence (P49841 whole entry): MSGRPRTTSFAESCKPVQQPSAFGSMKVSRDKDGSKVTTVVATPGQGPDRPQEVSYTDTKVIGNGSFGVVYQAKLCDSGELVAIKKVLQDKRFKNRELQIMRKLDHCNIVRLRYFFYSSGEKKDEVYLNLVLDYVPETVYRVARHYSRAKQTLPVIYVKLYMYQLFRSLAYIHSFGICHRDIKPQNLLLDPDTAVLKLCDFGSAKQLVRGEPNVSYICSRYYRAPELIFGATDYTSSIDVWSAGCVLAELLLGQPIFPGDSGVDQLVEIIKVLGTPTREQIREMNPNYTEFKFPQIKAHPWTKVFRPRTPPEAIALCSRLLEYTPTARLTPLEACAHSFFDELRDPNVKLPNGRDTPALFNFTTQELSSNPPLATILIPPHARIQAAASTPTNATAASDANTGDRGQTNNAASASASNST
PRK2, sequence (Q16513 whole entry): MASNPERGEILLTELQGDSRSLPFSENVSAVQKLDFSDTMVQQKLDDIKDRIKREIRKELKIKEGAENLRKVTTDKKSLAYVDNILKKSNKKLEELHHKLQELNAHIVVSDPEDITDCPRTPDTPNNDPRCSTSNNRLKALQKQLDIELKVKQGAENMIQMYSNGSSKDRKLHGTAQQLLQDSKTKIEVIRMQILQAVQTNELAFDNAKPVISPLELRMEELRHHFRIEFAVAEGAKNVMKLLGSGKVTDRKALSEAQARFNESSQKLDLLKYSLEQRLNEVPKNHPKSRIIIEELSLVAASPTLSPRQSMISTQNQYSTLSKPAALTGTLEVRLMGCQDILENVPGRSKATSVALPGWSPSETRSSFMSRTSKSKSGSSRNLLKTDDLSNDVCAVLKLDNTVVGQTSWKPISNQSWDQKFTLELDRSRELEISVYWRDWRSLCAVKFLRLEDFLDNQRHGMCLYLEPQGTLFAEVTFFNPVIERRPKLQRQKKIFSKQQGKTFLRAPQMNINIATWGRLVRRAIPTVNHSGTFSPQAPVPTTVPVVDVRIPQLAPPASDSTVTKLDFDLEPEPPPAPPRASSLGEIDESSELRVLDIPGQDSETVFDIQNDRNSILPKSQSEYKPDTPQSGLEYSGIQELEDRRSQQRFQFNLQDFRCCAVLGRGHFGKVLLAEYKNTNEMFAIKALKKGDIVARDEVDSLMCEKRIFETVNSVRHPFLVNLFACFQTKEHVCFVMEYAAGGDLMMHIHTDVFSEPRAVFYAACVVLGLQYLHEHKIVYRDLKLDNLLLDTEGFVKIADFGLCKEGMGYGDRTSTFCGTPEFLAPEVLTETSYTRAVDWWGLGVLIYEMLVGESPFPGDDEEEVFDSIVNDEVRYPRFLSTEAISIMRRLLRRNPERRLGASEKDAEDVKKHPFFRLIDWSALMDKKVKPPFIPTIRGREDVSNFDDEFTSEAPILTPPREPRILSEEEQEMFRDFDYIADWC
T1 sequence (Q62868 11-550 limits assumed): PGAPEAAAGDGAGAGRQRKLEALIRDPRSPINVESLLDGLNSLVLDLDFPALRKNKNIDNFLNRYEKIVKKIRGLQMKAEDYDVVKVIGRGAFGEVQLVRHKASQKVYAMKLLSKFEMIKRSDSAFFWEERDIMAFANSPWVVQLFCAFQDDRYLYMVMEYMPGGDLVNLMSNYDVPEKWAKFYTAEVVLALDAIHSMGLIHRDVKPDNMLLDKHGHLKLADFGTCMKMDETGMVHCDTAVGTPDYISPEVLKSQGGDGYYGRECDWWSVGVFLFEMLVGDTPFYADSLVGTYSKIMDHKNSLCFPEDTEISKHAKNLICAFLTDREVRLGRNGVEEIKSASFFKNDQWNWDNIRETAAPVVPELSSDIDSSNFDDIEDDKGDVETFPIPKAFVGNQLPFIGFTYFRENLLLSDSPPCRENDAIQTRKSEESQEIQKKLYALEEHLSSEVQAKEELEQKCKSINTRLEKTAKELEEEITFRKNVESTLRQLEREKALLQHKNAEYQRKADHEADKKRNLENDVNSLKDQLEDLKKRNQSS
MSK1, sequence (O75582 whole entry, species assumed): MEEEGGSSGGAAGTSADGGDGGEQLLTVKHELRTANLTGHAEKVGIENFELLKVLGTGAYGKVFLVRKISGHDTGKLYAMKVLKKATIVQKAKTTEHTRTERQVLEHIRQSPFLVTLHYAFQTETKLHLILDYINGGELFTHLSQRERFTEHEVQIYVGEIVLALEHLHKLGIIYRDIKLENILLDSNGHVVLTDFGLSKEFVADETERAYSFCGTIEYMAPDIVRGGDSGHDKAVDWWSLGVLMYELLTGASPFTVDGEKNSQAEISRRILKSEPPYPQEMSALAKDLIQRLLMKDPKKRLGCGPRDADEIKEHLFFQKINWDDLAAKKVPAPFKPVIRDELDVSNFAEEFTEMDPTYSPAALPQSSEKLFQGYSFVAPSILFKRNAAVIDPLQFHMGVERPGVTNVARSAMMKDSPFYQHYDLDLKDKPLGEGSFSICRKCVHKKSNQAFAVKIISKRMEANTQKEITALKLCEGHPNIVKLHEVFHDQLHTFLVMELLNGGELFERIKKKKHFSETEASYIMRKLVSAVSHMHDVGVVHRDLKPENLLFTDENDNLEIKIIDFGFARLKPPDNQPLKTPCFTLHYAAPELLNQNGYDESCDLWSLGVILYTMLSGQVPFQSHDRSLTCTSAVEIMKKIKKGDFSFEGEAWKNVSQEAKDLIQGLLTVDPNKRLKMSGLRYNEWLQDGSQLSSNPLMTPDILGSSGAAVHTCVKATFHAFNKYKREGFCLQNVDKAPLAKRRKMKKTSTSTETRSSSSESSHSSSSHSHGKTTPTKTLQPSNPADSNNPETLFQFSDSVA

activity towards GSKB (FIG. 10) [1]: can exert activity
Structure (SMILES): Cl.Cl.O=C(Nc1ccncc1)[C@H]1CC[C@H](NNCc2ccc(OCc3ccccc3)cc2)CC1 [BA-1035, trans-4-{N′-[4′-(Benzyloxy)benzyl]hydrazino}-N-(4′″-pyridyl)cyclohexane Carboxamide Dihydrochloride]

activity towards GSKB (FIG. 10) [1]: can exert activity
Structure (SMILES): Cl.Cl.O=C(Nc1ccncc1)[C@H]1CC[C@H](NNC/C=C/c2ccccc2)CC1 [BA-1038, 1,4-trans-2′,3′-trans-4-{N′-[3′-(Phenyl)prop-2′-enyl]hydrazino}-N-(4′″-pyridyl)cyclohexane Carboxamide Dihydrochloride]

activity towards GSKB (FIG. 10) [1]: can exert activity
Structure (SMILES): Cl.Cl.O=C(Nc1ccncc1)[C@H]1CC[C@H](NNCC2CCCCC2)CC1 [BA-1036, trans-4-{N′-[(Cyclohexyl)methyl]hydrazino}-N-(4′″-pyridyl)cyclohexane Carboxamide Dihydrochloride]

The remaining lines, values behind:

Structure (SMILES): Cl.Cl.O=C(Nc1ccncc1)[C@H]1CC[C@H](NNCC(c2ccccc2)c2ccccc2)CC1 [BA-1034, trans-4-{N′-[2′,2′-(Diphenyl)ethyl]hydrazino}-N-(4′″-pyridyl)cyclohexane Carboxamide Dihydrochloride]
activity towards GSKB (FIG. 10) [1]: can exert activity

Structure (SMILES): C=CC[C@H](N)[C@H]1CC[C@H](C(=O)Nc2ccncc2)CC1.Cl.Cl (stereo in doubt) [BA-1017]
inhibition of ROCKII activity (FIG. 3) (ROCK II): inhibition of ROCKII activity | neurite outgrowth on MAG substrates at the lowest concentration tested ([2]; PC12 cells, 0.31 uM): better neurite outgrowth; also recorded: effective | neurite outgrowth on inhibitory MAG substrates (FIG. 4) [2]: can promote neurite outgrowth; also recorded: able to overcome growth inhibition by MAG | neurite outgrowth (FIG. 2) [3]: promote neurite outgrowth

Structure (SMILES): C=CC[C@@H](N)[C@H]1CC[C@H](C(=O)Nc2ccncc2)CC1.Cl.Cl (stereo in doubt) [BA-1003]
neurite outgrowth on inhibitory MAG substrates (FIG. 4) [2]: can promote neurite outgrowth; also recorded: able to overcome growth inhibition by MAG | neurite outgrowth (FIG. 2) [3]: promote neurite outgrowth

Structure (SMILES): C=CC[C@@H](NC)[C@H]1CC[C@H](C(=O)Nc2ccncc2)CC1.Cl.Cl (relative stereo) [BA-1028, (R,S)-trans-4-[(N′-methyl)-but-3′-en-1′-amino]-N-(4″-pyridyl)cyclohexane Carboxamide Dihydrochloride]
activity towards GSKB (FIG. 10) [1]: can exert activity

Structure (SMILES): C=CC[C@@H](NCc1ccccc1)[C@H]1CC[C@H](C(=O)Nc2ccncc2)CC1.Cl.Cl (relative stereo) [BA-1029, (R,S)-trans-4-[(N′-benzyl)-but-3′-en-1′-amino]-N-(4″-pyridyl)cyclohexane Carboxamide Dihydrochloride]
activity towards GSKB (FIG. 10) [1]: can exert activity

Structure (SMILES): C[C@@H](N)[C@H]1CC[C@H](C(=O)Nc2ccncc2)CC1.Cl.Cl (relative stereo) [Y-27632, (R)-trans-4-(Ethan-1′-amino)-N-(4″-pyridyl)cyclohexane Carboxamide Dihydrochloride]
inhibition of PRK2 (PRK2): inhibits | inhibition of MSK1 (MSK1): inhibits | inhibition of PHK (PHK): inhibits | toxicity [4]: not toxic | blood pressure ([5]; hypertensive rats): reduces blood pressure | blood pressure ([5]; normal rats): does not affect blood pressure | inhibition of MAPKAP-K1b (MAPKAP-K1b): inhibits

— patent publication US20040138272A1, “1,4-Substituted cyclohexane derivatives” (priority 2002, published 2004)
